Measurements as given in US4301177A, “(3-Methyl-2-butenyl)propanedioic acid mono (1,2-diphenylhydrazide) and salts thereof” (Istituto de Angeli S.p.A., priority 1979, dated 1981).
Counter-ions that a name gives are not always drawn. Like-named read-outs stand apart in the source and are kept apart here.

Experiments:
rats [1] = assay: in vivo
Method: (§1) In the present study the test compounds were administered perorally by means of a stomach tube as an aqueous suspension in 5% acacia gum at a constant volume of 10 ml/kg to male Swiss mice and male Sprague-Dawley rats. Control rats and mice were given a corresponding volume of the aqueous suspension medium.
(§2) The acute toxicity was determined on groups of 10 rats treated orally with 500, 1000, 1500 and 2000 mg/kg of the test compound by means of a stomach tube.

in vivo = settings: rat, in vivo, po
Method: as §1, §2

rats [2] = assay type: in vivo, male Sprague-Dawley rats; settings: 40 mg/kg oral
Method: as §1, with “medium. The results were statistically evaluated by Dunnett's test (C. V. Dunnett.: J.A. Stat. Ass., 40, 1096, 1955).” for “medium.”
1. Anti-inflammatory activity
The anti-inflammatory activity was determined in the carrageenin edema test according to Winter et al., (see C. A. Winter, E. A. Risley, G. W. Muss: J. Pharm. Exp. Ther., 141, 369, 1963).
The edema was provoked in rats by a subplantar injection into the right hind paw of 0.1 ml of a 1% carrageenin suspension in sterile saline solution.
Rats were treated orally with the test compound 60 minutes before the injection of carrageenin. The volume of the foot was measured with a mercury differential volume-meter immediately before injection of the phlogistic agent, and 3 and 5 hours thereafter. The anti-inflammatory activity was evaluated as percent edema inhibition of treated rats in comparison with the controls, according to the following formula: [formula]

SMILES | LD50 confidence limits (rats [1]; rat, in vivo, po) [mg/kg] | toxicity compared with prior art compound (rats [1]; summary, Table VII) | LD50 at 168 h (in vivo) [mg/kg] | Edema volume, mean ± standard deviation (rats [2]; 3 h after carrageenin) [mL] | Edema volume, mean ± standard deviation (rats [2]; 5 h after carrageenin) [mL]
CC(C)=CCC(C(=O)O)C(=O)N(Nc1ccccc1)c1ccccc1 (centres unmarked) [A, Calcium salt of (3-methyl-2-butenyl)propanedioic acid mono(1,2-diphenylhydrazide)] | 721.30 to 1550.51 | less toxic | 1060 | – | –
CCCCC(C(=O)O)C(=O)N(Nc1ccccc1)c1ccccc1 (centres unmarked) [B, Calcium salt of butylpropanedioic acid mono(1,2-diphenylhydrazide), reference compound] | – | – | – | 1.42 ± 0.27 | 2.06 ± 0.42
